In article PMC5880808, “A lever-like transduction pathway for long-distance chemical- and mechano-gating of the mechanosensitive Piezo1 channel” (Nature Communications, 2018):

How the values were obtained:
[1] = molecular target: T1, mPiezo1 (Mus musculus, UniProt E2JF22); test: Whole-cell patch clamp, gap-free recording, compound puffed onto cells; format: cell-based; details: for compound-evoked whole-cell current: mPiezo1-mRuby2-expressing HEK293T, 1 mM Jedi1 or 30 μM Yoda1 puffed
T1 construct: The full-length mPiezo1 has 2547 amino acids in each monomer; expressed in transfected cells; host or cells: HEK293T
T1 sequence (E2JF22 whole entry): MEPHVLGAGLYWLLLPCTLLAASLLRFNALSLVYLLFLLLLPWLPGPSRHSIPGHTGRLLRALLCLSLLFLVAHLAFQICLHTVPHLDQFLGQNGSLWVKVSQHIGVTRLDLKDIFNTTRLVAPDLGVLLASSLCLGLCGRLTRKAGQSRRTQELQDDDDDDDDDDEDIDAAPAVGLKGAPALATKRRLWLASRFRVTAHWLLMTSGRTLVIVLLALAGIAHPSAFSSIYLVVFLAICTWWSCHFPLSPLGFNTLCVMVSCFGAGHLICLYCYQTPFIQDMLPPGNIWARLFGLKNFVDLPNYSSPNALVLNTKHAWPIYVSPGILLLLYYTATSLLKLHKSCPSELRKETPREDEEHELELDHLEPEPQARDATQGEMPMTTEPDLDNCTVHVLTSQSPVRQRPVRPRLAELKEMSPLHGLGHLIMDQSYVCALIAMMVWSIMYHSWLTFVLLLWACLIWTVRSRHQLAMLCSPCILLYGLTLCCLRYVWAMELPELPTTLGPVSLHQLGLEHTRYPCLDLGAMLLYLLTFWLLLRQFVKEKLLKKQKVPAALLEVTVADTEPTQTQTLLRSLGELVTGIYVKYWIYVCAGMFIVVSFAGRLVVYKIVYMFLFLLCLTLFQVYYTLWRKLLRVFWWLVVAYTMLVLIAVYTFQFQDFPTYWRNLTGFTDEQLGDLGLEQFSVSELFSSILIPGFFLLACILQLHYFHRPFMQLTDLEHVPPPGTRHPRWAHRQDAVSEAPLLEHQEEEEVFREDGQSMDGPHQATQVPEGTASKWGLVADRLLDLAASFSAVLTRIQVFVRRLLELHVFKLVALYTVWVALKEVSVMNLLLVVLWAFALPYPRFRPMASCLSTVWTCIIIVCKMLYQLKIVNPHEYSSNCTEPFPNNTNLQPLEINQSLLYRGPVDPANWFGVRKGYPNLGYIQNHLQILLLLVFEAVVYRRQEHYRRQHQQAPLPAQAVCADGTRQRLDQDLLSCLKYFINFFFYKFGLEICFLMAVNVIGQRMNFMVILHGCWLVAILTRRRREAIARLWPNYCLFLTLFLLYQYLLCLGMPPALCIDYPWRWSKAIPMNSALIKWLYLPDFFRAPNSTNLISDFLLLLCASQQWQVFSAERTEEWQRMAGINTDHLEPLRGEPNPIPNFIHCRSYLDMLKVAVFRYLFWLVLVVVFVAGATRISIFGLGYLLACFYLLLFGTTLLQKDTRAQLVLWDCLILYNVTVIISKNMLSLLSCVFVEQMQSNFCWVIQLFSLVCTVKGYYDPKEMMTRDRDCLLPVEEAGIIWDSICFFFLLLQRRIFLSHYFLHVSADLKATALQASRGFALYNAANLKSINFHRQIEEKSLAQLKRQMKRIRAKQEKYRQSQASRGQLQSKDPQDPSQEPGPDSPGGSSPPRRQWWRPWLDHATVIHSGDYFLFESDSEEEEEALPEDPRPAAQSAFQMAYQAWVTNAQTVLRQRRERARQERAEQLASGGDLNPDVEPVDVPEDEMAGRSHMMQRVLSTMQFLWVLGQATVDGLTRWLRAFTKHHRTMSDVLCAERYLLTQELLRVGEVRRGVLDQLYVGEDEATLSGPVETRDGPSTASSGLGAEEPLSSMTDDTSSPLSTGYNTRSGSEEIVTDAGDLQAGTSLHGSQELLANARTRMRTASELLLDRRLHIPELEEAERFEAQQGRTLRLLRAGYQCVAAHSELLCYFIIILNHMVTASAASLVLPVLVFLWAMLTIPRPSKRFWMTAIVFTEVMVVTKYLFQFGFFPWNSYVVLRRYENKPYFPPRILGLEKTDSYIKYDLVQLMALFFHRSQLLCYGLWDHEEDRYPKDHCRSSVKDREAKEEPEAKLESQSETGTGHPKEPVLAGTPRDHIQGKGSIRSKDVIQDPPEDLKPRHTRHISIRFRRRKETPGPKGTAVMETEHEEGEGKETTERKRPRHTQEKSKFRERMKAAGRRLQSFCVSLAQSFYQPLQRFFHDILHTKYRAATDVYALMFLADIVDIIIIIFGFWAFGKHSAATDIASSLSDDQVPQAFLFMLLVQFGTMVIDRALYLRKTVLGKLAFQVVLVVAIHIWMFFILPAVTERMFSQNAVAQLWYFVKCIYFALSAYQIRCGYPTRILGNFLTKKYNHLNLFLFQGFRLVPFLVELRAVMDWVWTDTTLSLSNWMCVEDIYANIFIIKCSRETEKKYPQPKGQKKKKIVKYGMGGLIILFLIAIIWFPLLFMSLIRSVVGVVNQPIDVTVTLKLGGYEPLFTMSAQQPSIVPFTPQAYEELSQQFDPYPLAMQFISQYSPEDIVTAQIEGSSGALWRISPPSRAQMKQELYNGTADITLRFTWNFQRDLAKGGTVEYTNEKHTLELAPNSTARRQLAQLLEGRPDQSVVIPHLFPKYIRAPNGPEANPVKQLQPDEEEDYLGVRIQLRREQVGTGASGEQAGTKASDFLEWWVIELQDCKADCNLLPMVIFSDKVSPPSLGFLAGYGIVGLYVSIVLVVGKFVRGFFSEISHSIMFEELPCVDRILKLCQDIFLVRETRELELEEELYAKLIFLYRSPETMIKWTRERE
Method: Protocols for HEK293T cell culture, transient transfection, and patch-clamp experiments with an Axopatch 200B amplifier (Axon Instruments) or HEKA EPC10 were essentially similar to how previously described[6],[8]. […] The extracellular solution was composed of (in mM) 133 NaCl, 3 KCl, 2.5 CaCl2, 1 MgCl2, 10 HEPES (pH 7.3 with NaOH), and 10 glucose. All experiments were carried out at room temperature. Currents were sampled at 20 kHz, filtered at 2 kHz using the Clampex 10.4 software (Axon Instruments) or Patchmaster software. Leak currents before mechanical stimulations were subtracted offline from the current traces.
Stock solutions of Jedi1 (100 mM), Jedi2 (100 mM), and Yoda1 (30 mM) were solubilized in DMSO and diluted to the desired final concentrations as indicated in the figure legends using external or internal solutions. In Figs. 3a, 5b, and 6e, the compound solutions were puffed onto the cells using a multichannel perfusion system (MPS-2, World Precision Instruments) while continuously recording using a gap-free mode. In other conditions, the compounds were directly added to the recording chamber or pipette solution, and the currents were recorded within 10 min. In Figs. 5b and 6e, we used the Piezo1-KO-HEK cell line in which the endogenous Piezo1 gene is disrupted.

[2] = molecular target: T1, mPiezo1; test: Cell-attached patch with pressure clamp (stretch-activated currents); format: cell-based; details: for slope sensitivity (s): DMSO 14.1 ± 0.7; for P50 (the pressure required for half maximal activation): DMSO −27.0 ± 3.4
Method: Stretch-activated currents were recorded in the cell-attached patch-clamp configuration as previously described. Currents were sampled at 20 kHz and filtered at 2 kHz. Pipette was filled with a solution consisting of (in mM) 130 NaCl, 5 KCl, 10 HEPES, 1 CaCl2, 1 MgCl2, and 10 TEA-Cl (pH 7.3, balanced with NaOH). The external solution used to zero the membrane potential consisted of (in mM) 140 KCl, 10 HEPES, 1 MgCl2, and 10 glucose (pH 7.3 with KOH). All experiments were done at room temperature. Membrane patches were stimulated with negative pressure pulses for 500 ms through the recording electrode using a Patchmaster-controlled pressure clamp HSPC-1 device (ALA-scientific). Stretch-activated channels were recorded at a holding potential of −80 mV with pressure steps from 0 to −100 mm Hg (−10 mm Hg increments), and 4–11 recording traces were averaged per cell for analysis. Current-pressure relationships were fitted with a Boltzmann equation of the form: I(P) = [1 + exp (−(P – P50)/s)]^−^1, where I is the peak of stretch-activated current at a given pressure, P is the applied patch pressure (in mm Hg), P50 is the pressure value that evoked a current value which is 50% of Imax, and s reflects the current sensitivity to pressure.

[3] = test system: mPiezo1 mutants L1342A/L1345A; L1342D/L1345D; L1342S/L1345S; L1342A; L1345A; test: Single-cell Ca2+ imaging or FLIPR, L1342/L1345 mutants; format: cell-based, mouse; details: all five mutants, 1 mM Jedi1, 30 μM Yoda1
Method: HEK293T cells were grown in Dulbecco’s modified Eagle medium containing 4.5 mg/ml glucose, 10% fetal bovine serum, and 1% penicillin/streptomycin. Cells were seeded in 50 μg/ml poly-D-lysine-coated 96-well plates (3 × 10^4 cells/well) and allowed to grow for about 18 h, and then co-transfected with a total of 250 ng cDNA containing Piezo1 or Piezo2 and GCaMP6s using Lipofectamine 2000 (Invitrogen, Life Technology). Two days after transfection the cells were washed with buffer containing 1× Hanks’ balanced salt solution (HBSS; 1.3 mM Ca^2+) and 10 mM HEPES (pH 7.2). The 96-well plates were then transferred to the FLIPR Tetra (Molecular Device) for monitoring the GCAMP6s fluorescence before and after addition of the compounds that were prepared in separate compound plates. […]
Fura-2 single-cell Ca^2+ imaging was performed according to the previous protocol. […] The coverslip was mounted into an inverted Nikon-Tie microscope equipped with a CoolSNAP charge-coupled devise (CCD) camera and Lambda XL light box (Sutter Instrument), and mCherry-positive and -negative cells were selected for measurement of the 340/380 ratio with a ×20 objective (numerical aperture 0.75) using the MetaFluor Fluorescence Ratio Imaging software (Molecular Device).

[4] = molecular target: T2, mPiezo1 Q1344A (Mus musculus, UniProt E2JF22, Q1344A); test: Fura-2 single-cell Ca2+ imaging, Q1344A mutant; format: cell-based; details: 1 mM Jedi1, 30 µM Yoda1
T2 construct: The full-length mPiezo1 has 2547 amino acids in each monomer; mCherry; expressed in transfected cells; host or cells: HEK293T
T2 sequence (E2JF22 whole entry Q1344A): as the sequence (E2JF22 whole entry) above, with Q1344A counted along it
Method: Fura-2 single-cell Ca^2+ imaging was performed according to the previous protocol. In brief, mCherry-Piezo1 cDNA (1 μg)-transfected HEK293T cells were plated onto 12-mm round glass coverslips, which were coated with poly-D-lysine and placed in 24-well plates, and subject to Fura-2 single-cell Ca^2+ imaging about 36 h post transfection. Cells were washed with buffer containing 1× HBSS (1.3 mM Ca^2+) and 10 mM HEPES (pH 7.2), incubated with 2.5 μM Fura-2 and 0.05% Pluronic F-127 (Life Technologies) for 30 min, then washed again with the previously mentioned buffer. The coverslip was mounted into an inverted Nikon-Tie microscope equipped with a CoolSNAP charge-coupled devise (CCD) camera and Lambda XL light box (Sutter Instrument), and mCherry-positive and -negative cells were selected for measurement of the 340/380 ratio with a ×20 objective (numerical aperture 0.75) using the MetaFluor Fluorescence Ratio Imaging software (Molecular Device).

Compound	onset and decay of evoked currents relative to Yoda1-induced currents ([1]; 1 mM Jedi1 vs 30 μM Yoda1)	compound-evoked whole-cell current [1]	slope sensitivity (s) [2] [mm Hg]	maximal stretching-induced Piezo1 current ([2]; −80 mV)	P50 (the pressure required for half maximal activation) ([2]; −80 mV) [mm Hg]	compound-evoked Ca2+ responses of L1342/L1345 mutants [3]	effect of the Q1344A mutation on compound-induced Ca2+ responses [4]	shift of the pressure-current relationship ([2]; −80 mV)
Cc1oc(-c2ccccc2)cc1C(=O)O [Jedi1]	more rapid onset and faster decay	evoked inward currents	9.8 ± 1.9	Neither Jedi1 nor Yoda1 altered	−16.7 ± 2.2	completely lost	did not affect	–
Clc1cccc(Cl)c1CSc1nnc(-c2cnccn2)s1 [Yoda1, reference compound]	–	evoked inward currents	8.0 ± 2.4	Neither Jedi1 nor Yoda1 altered	−15.1 ± 0.9	completely lost	did not affect	significant leftward shift
